Test systems include HT29 colon; K-562 leukemia; UACC-257 melanoma; UO-31 renal; HCT-15 colon; CCRF-CEM leukemia; SK-OV-3 ovarian; OVCAR-4 ovarian; SF-268 CNS; SK-MEL-28 melanoma.
What all share (assay): growth of human tumour cells (NCI), 48 h

Each structure is given as a SMILES string.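 Compound exposure: 48 hours, 5 concentrations, 96-well plates. At the TGI there is no net growth.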

`CC(O)=NC(Cc1ccc2ccccc2c1)C(O)=NC(Cc1ccc(Cl)cc1)C(O)=NC(Cc1c[nH]c2ccccc12)C(O)=NC(CO)C(O)=NC(Cc1ccc(O)cc1)C(O)=NC(CCCN=C(N)N)C(O)=NC(CC(C)C)C(O)=NC(CCCN=C(N)N)C(=O)N1CCCC1C(O)=NC(C)C(=N)O` (stereo not drawn): the TGI in the assay with HT29 colon is over 100 µM; with K-562 leukemia, over 100 µM; in the assay on UACC-257 melanoma it was over 100 µM; in the assay with UO-31 renal it was 63.1 µM; in the assay with HCT-15 colon it was over 100 µM; with CCRF-CEM leukemia it was over 100 µM. The TGI in the assay on SK-OV-3 ovarian is 72.3 µM; with OVCAR-4 ovarian, over 100 µM; with SF-268 CNS it was over 100 µM.
In the case of `CCOC(=O)[C@H]1C[C@]23CN(C(=O)OC(C)(C)C)CC[C@H]2CCC2(SCCCS2)[C@@H]3N1C`, the TGI was 53.3 µM in the assay with HT29 colon; over 100 µM in the assay on K-562 leukemia; 77.5 µM with UACC-257 melanoma; over 100 µM in the assay on UO-31 renal; over 100 µM with HCT-15 colon; over 100 µM in the assay on CCRF-CEM leukemia. Besides, the TGI in the assay on SK-MEL-28 melanoma is over 100 µM; in the assay on SK-OV-3 ovarian, over 100 µM; with OVCAR-4 ovarian it was 74.2 µM; in the assay on SF-268 CNS, over 100 µM.
In the case of `COc1c2ccoc2c(S(=O)(=O)Nc2ccc(Cl)cc2)c2oc(C)cc(=O)c12`, the TGI in the assay with HT29 colon, in the assay on K-562 leukemia, with UACC-257 melanoma, in the assay on UO-31 renal, in the assay with HCT-15 colon and in the assay on CCRF-CEM leukemia was over 100 µM in each case. Further, the TGI in the assay with SK-MEL-28 melanoma was over 100 µM; with SK-OV-3 ovarian it was over 100 µM; in the assay with OVCAR-4 ovarian it was over 67.2 µM; with SF-268 CNS it was over 100 µM.
On to `OC1(c2ccc3ccccc3c2)c2ccc3ccccc3c2C2=NCCN21` (stereo not drawn), for which the TGI in the assay with HT29 colon, in the assay on K-562 leukemia, in the assay with UACC-257 melanoma, with UO-31 renal, with HCT-15 colon and in the assay on CCRF-CEM leukemia was over 100 µM in each case. Besides, the TGI with SK-MEL-28 melanoma is over 100 µM; in the assay with SK-OV-3 ovarian, over 100 µM; with OVCAR-4 ovarian, 85.8 µM; with SF-268 CNS, over 100 µM.
As to `Cc1onc(-c2c(F)cccc2Cl)c1C(=O)N[C@@H]1C(=O)N2[C@@H]1SC(C)(C)[C@@H]2C(=O)O`, the TGI was over 100 µM in the assay on HT29 colon; over 100 µM in the assay on K-562 leukemia; over 100 µM in the assay on UACC-257 melanoma; 67.4 µM with UO-31 renal; over 100 µM in the assay with HCT-15 colon; over 100 µM in the assay with SK-MEL-28 melanoma. Further, the TGI in the assay with SK-OV-3 ovarian, in the assay with OVCAR-4 ovarian and in the assay on SF-268 CNS was over 100 µM each time.
On to `ClCC1(CCl)COC1`, for which the TGI in the assay on HT29 colon, in the assay on K-562 leukemia, with UACC-257 melanoma, in the assay on UO-31 renal, with HCT-15 colon and in the assay on CCRF-CEM leukemia was over 100 µM each time. The TGI in the assay on SK-MEL-28 melanoma, in the assay with SK-OV-3 ovarian, in the assay with OVCAR-4 ovarian and in the assay with SF-268 CNS was over 100 µM throughout.
Regarding `O=C(/N=C/c1c(O)c2ccccc2oc1=O)NC1CCCCC1`, the TGI in the assay on HT29 colon, in the assay with UACC-257 melanoma, with UO-31 renal, with HCT-15 colon, in the assay on SK-MEL-28 melanoma and in the assay with OVCAR-4 ovarian was over 100 µM in each case. The same compound yielded a TGI in the assay with SF-268 CNS of over 100 µM.
In the case of `COc1cc(NCc2ccc3n2-c2ccccc2OC3)cc(OC)c1OC`, the TGI in the assay on HT29 colon was over 100 µM; with K-562 leukemia, 27.6 µM; in the assay on UACC-257 melanoma it was 64.1 µM; with UO-31 renal, 60 µM; with HCT-15 colon, over 100 µM; in the assay with CCRF-CEM leukemia, 44.3 µM. For the same compound, the TGI with SK-MEL-28 melanoma was over 100 µM; with OVCAR-4 ovarian it was 55.5 µM; with SF-268 CNS, over 100 µM.
Consider `CCCC(=O)OCC(O)CO` (stereo not drawn), for which the TGI in the assay on HT29 colon, with K-562 leukemia, in the assay with UACC-257 melanoma, with UO-31 renal, in the assay on HCT-15 colon and in the assay with CCRF-CEM leukemia was over 5000 µM each time. The TGI in the assay on SK-MEL-28 melanoma, with SK-OV-3 ovarian, in the assay with OVCAR-4 ovarian and with SF-268 CNS was over 5000 µM throughout.
With `CCOc1ccc2c(c1)NC(=O)C(C1OC(c3ccccc3)=CC1=O)S2` (stereo not drawn), the TGI was 39.6 µM in the assay on HT29 colon; 68.7 µM in the assay on K-562 leukemia; over 100 µM with UACC-257 melanoma; 90.3 µM in the assay with UO-31 renal; 69.2 µM in the assay with HCT-15 colon; 10.9 µM in the assay on CCRF-CEM leukemia. In addition, the TGI with SK-MEL-28 melanoma was 68.8 µM; in the assay with SK-OV-3 ovarian, 52.8 µM; with SF-268 CNS, 63.1 µM.
Consider `CO[C@]12C[C@H](CNC(=O)c3cc(Br)c(Br)[nH]3)O[C@H]1NC(=O)N2`, for which the TGI in the assay on HT29 colon, in the assay on K-562 leukemia, in the assay on UACC-257 melanoma, with UO-31 renal, with HCT-15 colon and in the assay with CCRF-CEM leukemia was over 100 µM each time. Also, the TGI in the assay on SK-MEL-28 melanoma, in the assay with SK-OV-3 ovarian, in the assay with OVCAR-4 ovarian and in the assay on SF-268 CNS was over 100 µM in each case.
Turning to `CC[N+](CC)(CC)/C(=N/S(=O)(=O)c1cc(C)c(Cl)cc1S)[N-]S(=O)(=O)c1ccc(Cl)cc1`, the TGI in the assay on HT29 colon, with K-562 leukemia, in the assay with UACC-257 melanoma, with UO-31 renal, with HCT-15 colon and in the assay on CCRF-CEM leukemia was over 100 µM throughout. The TGI with SK-MEL-28 melanoma, in the assay on SK-OV-3 ovarian, in the assay with OVCAR-4 ovarian and in the assay with SF-268 CNS was over 100 µM each time.
Regarding `Cc1ccc(S(=O)(=O)NCCSS(=O)(=O)c2ccc(C)cc2)cc1`, the TGI in the assay on HT29 colon was 53.4 µM; with K-562 leukemia, over 100 µM; in the assay with UACC-257 melanoma, over 100 µM; in the assay on UO-31 renal, 61.7 µM; in the assay with HCT-15 colon, 37.8 µM; in the assay with CCRF-CEM leukemia it was over 100 µM. The TGI with SK-MEL-28 melanoma is 76.6 µM; in the assay with SK-OV-3 ovarian, over 100 µM; in the assay on OVCAR-4 ovarian, over 100 µM; in the assay on SF-268 CNS, 46.3 µM.
Take `CCCc1ccc(OCC(=O)N/N=C/c2c(-c3ccccc3)[nH]c3ccccc23)cc1`: the TGI was 29.8 µM in the assay with HT29 colon; 23.1 µM in the assay on K-562 leukemia; 33.7 µM in the assay on UACC-257 melanoma; over 100 µM in the assay on UO-31 renal; 59.8 µM with HCT-15 colon; 40.1 µM in the assay on CCRF-CEM leukemia. Also, the TGI with SK-MEL-28 melanoma was over 100 µM; in the assay with SK-OV-3 ovarian it was over 100 µM; with OVCAR-4 ovarian, 42.7 µM; in the assay with SF-268 CNS, over 100 µM.
As to `CS(=O)(=O)OCc1c(O)c2c(c(O)c1COS(C)(=O)=O)C(=O)C=CC2=O`, the TGI in the assay with HT29 colon, with K-562 leukemia, in the assay with UACC-257 melanoma, in the assay on UO-31 renal, in the assay on HCT-15 colon and in the assay with CCRF-CEM leukemia was over 100 µM throughout. For the same compound, the TGI in the assay on SK-MEL-28 melanoma, with SK-OV-3 ovarian, in the assay on OVCAR-4 ovarian and in the assay on SF-268 CNS was over 100 µM throughout.
With `C=C1C(=O)OC2/C=C(\C)CC(O)/C=C(/CO)CC(OC(=O)/C(C)=C/C)C12` (stereo not drawn), the TGI with HT29 colon amounted to 303 µM; in the assay on K-562 leukemia it was 64.4 µM; in the assay with UACC-257 melanoma, 202 µM; in the assay on UO-31 renal, 439 µM; in the assay on HCT-15 colon, 151 µM; in the assay on CCRF-CEM leukemia, 76 µM. The TGI came to 41.1 µM with SK-MEL-28 melanoma, 309 µM in the assay on SK-OV-3 ovarian, 319 µM with OVCAR-4 ovarian and 233 µM in the assay with SF-268 CNS.
As for `C=CCC1=CC2(OC)C(=O)C(OC)(OC)C1C1C(OC)(OC)C(=O)C(OC)=CC12CC=C` (stereo not drawn), the TGI with HT29 colon, in the assay on K-562 leukemia, with UACC-257 melanoma, in the assay on UO-31 renal, in the assay with HCT-15 colon and in the assay on CCRF-CEM leukemia was over 100 µM in each case. Further, the TGI in the assay on SK-MEL-28 melanoma, in the assay with SK-OV-3 ovarian, in the assay on OVCAR-4 ovarian and in the assay on SF-268 CNS was over 100 µM in each case.
In the case of `C[C@]12CC[C@H](O)CC1=CC[C@@H]1[C@@H]2CC[C@]2(C)C(=O)CC[C@@H]12`, the TGI with HT29 colon, with UACC-257 melanoma, with UO-31 renal, in the assay on HCT-15 colon, with SK-MEL-28 melanoma and in the assay with SK-OV-3 ovarian was over 100 µM each time. Besides, the TGI in the assay on OVCAR-4 ovarian and with SF-268 CNS was over 100 µM each time.
As for `C[n+]1c(-c2ccc(/C=N\NC(=O)c3ccc(C(=O)N/N=C/c4ccc(-c5cn6ccsc6[n+]5C)cc4)cc3)cc2)cn2ccsc21`, the TGI in the assay with HT29 colon is 36 µM; with K-562 leukemia, over 100 µM; with UACC-257 melanoma, 54.9 µM; with UO-31 renal, 32.3 µM; with HCT-15 colon, 37.8 µM; with CCRF-CEM leukemia, over 100 µM. Further, the TGI is 74.6 µM with SK-OV-3 ovarian and 57.8 µM in the assay with OVCAR-4 ovarian.
Take `O=c1cc(-c2nc3ccccc3[nH]2)[nH]c2nc(-c3nc4ccccc4[nH]3)cc(-c3ccc(Cl)cc3)c12`: the TGI in the assay on HT29 colon stood at 42.5 µM; with K-562 leukemia it was 68.8 µM; with UACC-257 melanoma, 69.3 µM; in the assay on UO-31 renal, 33 µM; in the assay on HCT-15 colon, 25.5 µM; in the assay with CCRF-CEM leukemia, 91.6 µM. Besides, the results for the TGI in the assay with SK-OV-3 ovarian, with OVCAR-4 ovarian and in the assay on SF-268 CNS were 46.1 µM, 95.4 µM and 47.5 µM, respectively.

Source of the values: PubChem BioAssay (NCI).
